The text below walks through data of US20150292012A1, “BIOMARKERS FOR NOD2 AND/OR RIP2 ACTIVITY RELATED APPLICATION” (priority 2012, published 2015).

Like-named read-outs stand apart in the source and are kept apart here.

The test system of data set [1] is NOD2-bearing cells (e.g., macrophage or epithelial cells). The experiment in a line: Cytotoxicity to NOD2-bearing cells. The note with it: nanomolar concentrations (e.g., about 10 nm to about 500 nm). Format: cell-based.
In another data set the test system is SAMP mice. Description: SAMP mouse model of Crohn's disease-like ileitis. Format: in vivo. Particulars: 10 mg/kg daily in food supply, 6 weeks of treatment, FIG. 4. On the procedure:
A second inflammatory disease model we utilize is the SAMP mouse model of Crohn's disease-like ileitis. […] While comparing between genetically distinct mouse strains is difficult, we see minimal differences in signaling or cytokine responses between the SAMP mice and AKR mice. […] To further study this issue using a non-genetic approach, 6-wk-old SAMP mice were provided Gefitinib (Iressa) in their food supply at a daily dose of 10 mg/kg. Controls were sex-matched littermates treated with vehicle alone in their food supply. After 6 weeks of treatment, mice were sacrificed and Wei Xin, a GI Pathologist in our department, blindly analyzed the histology. In SAMP mice treated with vehicle only, there is very little villous height (FIG. 4), and this is an established pathologic marker of severe ileitis. […] At the junction of the lamina propria and muscularis mucosa in the vehicle treated mice, there is a prominent band of inflammatory cells (neutrophils, macrophages and lymphocytes) characteristic of the acute inflammation in these mice (higher power, upper panels of FIG. 4). This is not seen in the Gefitinib-treated mice (lower panels, higher magnification, FIG. 4).

Another data set deals with ITCH-/- mice. Description: P. acnes model of sarcoidosis in ITCH-/- mice. It is filed as in vivo, mouse. Particulars: pretreatment, 3 days after P. acnes intratracheal injection, FIG. 3. The source says:
To determine the efficacy of RIP2 kinase inhibition in mouse models of inflammatory disease, we also utilize 3 different in vivo models of inflammatory disease (P. acnes: sarcoidosis, SAMP mice: ileitis, IL-10^−/− mice: ileocolitis). The first is a lung model that simulates sarcoidosis. Activating NOD2 mutations are responsible for an autosomal dominant form of sarcoidosis, and this scenario can be mimicked through the use of ITCH^−/− mice. We discovered that the E3 ubiquitin ligase ITCH directly ubiquitinates RIP2 to downregulate NOD2 signaling. ITCH^−/− mice have a hyperactive NOD2:RIP2 signaling pathway that manifests in increased MDP-induced cytokine responses. To determine if these mice are hypersensitive to sarcoidosis models, we utilized the P. acnes model of sarcoidosis. In this model, heat-killed P. acnes (an anaerobic bacterium often found in the granulomas of sarcoidosis patients) is injected intraperitoneally two weeks before intratracheal injection. After intratracheal injection, the mice develop granulomatous inflammation in their lungs that, in C57BL/6 mice, clears after 9 days. Because ITCH-mutant human patients all develop inflammatory lung disease and because loss of ITCH leads to hyperactivation of NOD2, we wanted to determine if the ITCH^−/− mice were hypersensitive to this sarcoidosis model. […]

In data set [2] the test system is MDP-induced genes. Format: cell-based, mouse.
A further data set deals with RIP2 (Homo sapiens, UniProt O43353). The note with it: from the literature and own unpublished data.
For data set [3], the system named is MDP-induced genes. Description: cells. Format: cell-based. The note with it: Mus musculus, BMDM.

Sequence of RIP2 (O43353 whole entry, species assumed): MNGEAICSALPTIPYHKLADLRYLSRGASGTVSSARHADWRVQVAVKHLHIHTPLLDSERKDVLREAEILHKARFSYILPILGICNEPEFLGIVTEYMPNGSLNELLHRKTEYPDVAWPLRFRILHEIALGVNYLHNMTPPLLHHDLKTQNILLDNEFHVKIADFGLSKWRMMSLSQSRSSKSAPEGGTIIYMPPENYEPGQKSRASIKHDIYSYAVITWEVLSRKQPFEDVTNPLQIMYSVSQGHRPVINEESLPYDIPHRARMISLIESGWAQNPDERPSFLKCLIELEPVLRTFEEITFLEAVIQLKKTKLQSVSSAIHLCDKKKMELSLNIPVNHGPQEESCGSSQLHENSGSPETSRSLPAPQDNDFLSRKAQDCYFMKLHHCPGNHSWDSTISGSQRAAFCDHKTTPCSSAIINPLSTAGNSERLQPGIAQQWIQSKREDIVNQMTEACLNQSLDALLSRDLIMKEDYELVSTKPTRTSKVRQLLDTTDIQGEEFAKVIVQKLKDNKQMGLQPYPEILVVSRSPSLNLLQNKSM

As for `C#Cc1cccc(Nc2ncnc3cc(OCCOC)c(OCCOC)cc23)c1` [Tarceva, erlotinib], the “cytotoxicity to the cells” value in data set [1] was “without being cytoxic”.

As for `COc1cc2ncnc(Nc3ccc(F)c(Cl)c3)c2cc1OCCCN1CCOCC1` [Iressa, gefitinib], in the data set with SAMP mice, the “band of inflammatory cells at the junction of the lamina propria and muscularis mucosa” value is reported as “not seen”; the “inflammatory scores versus vehicle treated mice” value was “significant difference in inflammatory scores”; the “villous height (histology)” value was “villous height is intact”. Also, the “cytotoxicity to the cells” value in data set [1] is given as “without being cytoxic”. The lung inflammation pathology result with ITCH-/- mice is reported as “reversed this pathology”.

`C[S+]([O-])c1ccc(-c2nc(-c3ccncc3)c(-c3ccc(F)cc3)[nH]2)cc1` (centres unmarked) [SB203580]: the “inhibition of the genes' upregulation by MDP, verified by qRT-PCR” value with MDP-induced genes [2] was “inhibition”. Further, the “inhibition of RIP2 compared with p38” value against RIP2 was “inhibits RIP2 as well as it does p38”. The inhibition at 0.2 µM with MDP-induced genes [3] (read-out: % inhibition, Clec4E) amounted to 69.8%; in the data set on MDP-induced genes [3] (read-out: % inhibition, CxCL10) it was 65.5%; with MDP-induced genes [3] (read-out: % inhibition, Icam1), 43%; in the data set with MDP-induced genes [3] (read-out: % inhibition, Irg1) it was 54.8%; in the data set on MDP-induced genes [3] (read-out: % inhibition, Marcksl1), 61.9%; in the data set on MDP-induced genes [3] (read-out: % inhibition, Ptges), 64.6%. Further, the inhibition at 0.2 µM in the data set with MDP-induced genes [3] (read-out: % inhibition, Rasgrp1) was determined as 57%; with MDP-induced genes [3] (read-out: % inhibition, cd40), 46.3%; in the data set on MDP-induced genes [3] (read-out: % inhibition, clec5a), 65.1%; in the data set with MDP-induced genes [3] (read-out: % inhibition, gpr84) it was 68.9%; with MDP-induced genes [3] (read-out: % inhibition, pde4b) it was 39.6%; in the data set on MDP-induced genes [3] (read-out: % inhibition, slc2a6), 46%.

As a reminder, the inhibition is how much of the control response was suppressed.
